From patent publication US20240101546A1, “HETEROARYL-ACETYLENES, PHARMACEUTICAL COMPOSITIONS THEREOF, AND THEIR THERAPEUTIC APPLICATIONS” (Eubulus Biotherapeutics Inc., priority 2020, published 2024)

System: lung cancer cell line NCI-H82
Test: Cell proliferation assay, NCI-H82 (CELL-TITER GLO)
Format: cell-based
Conditions: Homo sapiens, NCI-H82, 72 h, NCI-H82 cells, 72 h incubation, cell viability by CELL-TITER GLO, top concentration 1 μM; read-out: EC50, Inhibition of NCl-H82 Cell Proliferation
In short: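 NCI-H82 cells, 1,000 per well in RPMI1640, were treated after overnight plating with a 3-fold dilution series from 1 μM. Viability read by CellTiter-Glo luminescence after 72 h. EC50 derived from the curves.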

EC50 [nM] | Structure (SMILES)
200 to 1000 | C#Cc1nc(NC(=O)NCc2ccc(-c3cccc4ncsc34)cc2C#N)cs1 [Compound A177, 1-(4-(Benzo[d]thiazol-7-yl)-2-cyanobenzyl)-3-(2-ethynylthiazol-4-yl)urea]
≤ 200 | C#Cc1nc(NC(=O)NCc2ccc(-c3cccc4ncsc34)cn2)cs1 [Compound A179, 1-((5-(Benzo[d]thiazol-7-yl)pyridin-2-yl)methyl)-3-(2-ethynylthiazol-4-yl)urea]
≤ 200 | C#Cc1nc(NC(=O)N[C@@H](CC#N)c2ccc(-c3cccc4ncsc34)cc2)cs1 [Compound A196, (S)-1-(1-(4-(Benzo[d]thiazol-7-yl)phenyl)-2-cyanoethyl)-3-(2-ethynylthiazol-4-yl)urea]
≤ 200 | C#Cc1nc(NC(=O)N[C@@H](CS(C)(=O)=O)c2ccc(-c3cccc4ncsc34)cc2)cs1 [Compound A197, (R)-1-(1-(4-(Benzo[d]thiazol-7-yl)phenyl)-2-(methylsulfonyl)ethyl)-3-(2-ethynyl-thiazol-4-yl)urea]
≤ 200 | C#Cc1nc(NC(=O)N[C@@H](CS(N)(=O)=O)c2ccc(-c3cccc4ncsc34)cc2)cs1 [Compound A198, (R)-2-(4-(Benzo[d]thiazol-7-yl)phenyl)-2-(3-(2-ethynylthiazol-4-yl)ureido)-ethane-1-sulfonamide]
≤ 200 | C#Cc1nc(NC(=O)N[C@@H](CS(=O)(=O)NC)c2ccc(-c3cccc4ncsc34)cc2)cs1 [Compound A199, (R)-2-(4-(Benzo[d]thiazol-7-yl)phenyl)-2-(3-(2-ethynylthiazol-4-yl)ureido)-N-methylethane-1-sulfonamide]
≤ 200 | C#Cc1nc(NC(=O)N[C@@H](COC)c2ccc(-c3cccc4ncsc34)cc2)cs1 [Compound A200, (R)-1-(1-(4-(Benzo[d]thiazol-7-yl)phenyl)-2-methoxyethyl)-3-(2-ethynylthiazol-4-yl)urea]
≤ 200 | C#Cc1nc(NC(=O)N[C@@H](COC(C)=O)c2ccc(-c3cccc4ncsc34)cc2)cs1 [Compound A201, (R)-2-(4-(Benzo[d]thiazol-7-yl)phenyl)-2-(3-(2-ethynylthiazol-4-yl)ureido)ethyl acetate]
≤ 200 | C#Cc1nc(NC(=O)N[C@H](c2ccc(-c3cccc4ncsc34)cc2)C(C)(C)O)cs1 [Compound A203, (R)-1-(1-(4-(Benzo[d]thiazol-7-yl)phenyl)-2-hydroxy-2-methylpropyl)-3-(2-ethynylthiazol-4-yl)urea]
≤ 200 | C#Cc1nc(NC(=O)N[C@H](c2ccc(-c3cccc4ncsc34)cc2)C(C)O)cs1 (stereo partly drawn) [Compound A204, 1-((1R)-1-(4-(Benzo[d]thiazol-7-yl)phenyl)-2-hydroxypropyl)-3-(2-ethynyl-thiazol-4-yl)urea]
≤ 200 | C#Cc1nc(NC(=O)N(CCC#N)Cc2ccc(-c3cccc4ncsc34)cc2)cs1 [Compound A205, 1-(4-(Benzo[d]thiazol-7-yl)benzyl)-1-(2-cyanoethyl)-3-(2-ethynylthiazol-4-yl)urea]
≤ 200 | C#Cc1nc(NC(=O)N(CCO)Cc2ccc(-c3cccc4ncsc34)cc2)cs1 [Compound A206, 1-(4-(Benzo[d]thiazol-7-yl)benzyl)-3-(2-ethynylthiazol-4-yl)-1-(2-hydroxyethyl)-urea]
≤ 200 | C#Cc1nc(NC(=O)N(CC#N)Cc2ccc(-c3cccc4ncsc34)cc2)cs1 [Compound A208, 1-(4-(Benzo[d]thiazol-7-yl)benzyl)-1-(cyanomethyl)-3-(2-ethynylthiazol-4-yl)urea]
≤ 200 | C#Cc1nc(NC(=O)NC(C(N)=O)c2ccc(-c3cccc4ncsc34)cc2)cs1 (stereo not drawn) [Compound A209, 2-(4-(Benzo[d]thiazol-7-yl)phenyl)-2-(3-(2-ethynylthiazol-4-yl)ureido)acetamide]

More lines, now with the values behind:

Structure (SMILES) | EC50 [nM]
C#Cc1nc(NC(=O)NCc2ccc(-c3cncc(N4CCCC4)c3)cc2)cs1 [Compound A174, 1-(2-Ethynylthiazol-4-yl)-3-(4-(5-(pyrrolidin-1-yl)pyridin-3-yl)benzyl)urea] | ≤ 200
C#Cc1nc(NC(=O)NCc2ccc(-c3ccnc(N4CCCC4)c3)cc2)cs1 [Compound A175, 1-(2-Ethynylthiazol-4-yl)-3-(4-(2-(pyrrolidin-1-yl)pyridin-4-yl)benzyl)urea] | ≤ 200
C#Cc1nc(NC(=O)NCc2ccc(-c3cccc(N4CCCC4)n3)cc2)cs1 [Compound A176, 1-(2-Ethynylthiazol-4-yl)-3-(4-(6-(pyrrolidin-1-yl)pyridin-2-yl)benzyl)urea] | ≤ 200
C#Cc1nc(NC(=O)NCc2ccc(-c3cccc(C4(C#N)CC4)c3)nc2)cs1 [Compound A180, 1-((6-(3-(1-Cyanocyclopropyl)phenyl)pyridin-3-yl)methyl)-3-(2-ethynylthiazol-4-yl)urea] | ≤ 200
C#Cc1nc(NC(=O)N[C@@H](CO)c2ccc(-c3cccc(N4CCC(F)(F)C4)c3)cc2)cs1 [Compound A181, (R)-1-(1-(3′-(3,3-Difluoropyrrolidin-1-yl)-[1,1′-biphenyl]-4-yl)-2-hydroxyethyl)-3-(2-ethynylthiazol-4-yl)urea] | ≤ 200
C#Cc1nc(NC(=O)N[C@@H](CO)c2ccc(C3CCCCC3)cc2)cs1 [Compound A182, (R)-1-(1-(4-Cyclohexylphenyl)-2-hydroxyethyl)-3-(2-ethynylthiazol-4-yl)urea] | ≤ 200
C#Cc1nc(NC(=O)N[C@@H](CO)c2ccc(C3=CCCCC3)cc2)cs1 [Compound A183, (R)-1-(2-Ethynylthiazol-4-yl)-3-(2-hydroxy-1-(2′,3′,4′,5′-tetrahydro-[1,1′-biphenyl]-4-yl)ethyl)urea] | ≤ 200
C#Cc1nc(NC(=O)N[C@@H](CO)c2ccc(C3CCN(C)CC3)cc2)cs1 [Compound A184, (R)-1-(2-Ethynylthiazol-4-yl)-3-(2-hydroxy-1-(4-(1-methylpiperidin-4-yl)phenyl)-ethyl)urea] | 200 to 1000
C#Cc1nc(NC(=O)N[C@@H](CO)c2ccc(C3=CCN(C)CC3)cc2)cs1 [Compound A185, (R)-1-(2-Ethynylthiazol-4-yl)-3-(2-hydroxy-1-(4-(1-methyl-1,2,3,6-tetrahydro-pyridin-4-yl)phenyl)ethyl)urea] | 200 to 1000
C#Cc1nc(NC(=O)N[C@@H](CO)c2ccc(-c3cccc(S(C)(=O)=O)c3)cc2)cs1 [Compound A186, (R)-1-(2-Ethynylthiazol-4-yl)-3-(2-hydroxy-1-(3′-(methylsulfonyl)-[1,1′-biphenyl]-4-yl)ethyl)urea] | ≤ 200
C#Cc1nc(NC(=O)N[C@@H](CO)c2ccc(-c3cccc(C4(C#N)CC4)c3)cc2)cs1 [Compound A187, (R)-1-(1-(3′-(1-Cyanocyclopropyl)-[1,1′-biphenyl]-4-yl)-2-hydroxyethyl)-3-(2-ethynylthiazol-4-yl)urea] | ≤ 200
C#Cc1nc(NC(=O)N[C@@H](CO)c2ccc(-c3cccc(C4CC4(F)F)c3)cc2)cs1 (stereo partly drawn) [Compound A188, 1-((1R)-1-(3′-(2,2-Difluorocyclopropyl)-[1,1′-biphenyl]-4-yl)-2-hydroxyethyl)-3-(2-ethynylthiazol-4-yl)urea] | ≤ 200
C#Cc1nc(NC(=O)N[C@@H](CO)c2ccc(-c3cccc(C4(O)CCC4)c3)cc2)cs1 [Compound A189, (R)-1-(2-Ethynylthiazol-4-yl)-3-(2-hydroxy-1-(3′-(1-hydroxycyclobutyl)-[1,1′-biphenyl]-4-yl)ethyl)urea] | ≤ 200
C#Cc1nc(NC(=O)N[C@@H](CO)c2ccc(-c3cccc(N4CCC4)c3)cc2)cs1 [Compound A190, (R)-1-(1-(3′-(Azetidin-1-yl)-[1,1′-biphenyl]-4-yl)-2-hydroxyethyl)-3-(2-ethynyl-thiazol-4-yl)urea] | ≤ 200
C#Cc1nc(NC(=O)N[C@@H](CO)c2ccc(-c3cccc(N4CC(F)(F)C4)c3)cc2)cs1 [Compound A191, (R)-1-(1-(3′-(3,3-Difluoroazetidin-1-yl)-[1,1′-biphenyl]-4-yl)-2-hydroxyethyl)-3-(2-ethynylthiazol-4-yl)urea] | ≤ 200
C#Cc1nc(NC(=O)N[C@@H](CO)c2ccc(C3CCCN(C)C3)cc2)cs1 (stereo partly drawn) [Compound A192, 1-(2-Ethynylthiazol-4-yl)-3-((1R)-2-hydroxy-1-(4-(1-methylpiperidin-3-yl)-phenyl)ethyl)urea] | 200 to 1000
C#Cc1nc(NC(=O)N[C@@H](CO)c2ccc(C3=CCCN(C)C3)cc2)cs1 [Compound A193, (R)-1-(2-Ethynylthiazol-4-yl)-3-(2-hydroxy-1-(4-(1-methyl-1,2,5,6-tetrahydro-pyridin-3-yl)phenyl)ethyl)urea] | 200 to 1000
C#Cc1nc(NC(=O)N[C@@H](CO)c2ccc(C3CCCN(C(C)=O)C3)cc2)cs1 (stereo partly drawn) [Compound A194, 1-((1R)-1-(4-(1-Acetylpiperidin-3-yl)phenyl)-2-hydroxyethyl)-3-(2-ethynyl-thiazol-4-yl)urea] | 200 to 1000
C#Cc1nc(NC(=O)N[C@@H](CO)c2ccc(N3CCCCC3)cc2)cs1 [Compound A195, (R)-1-(2-Ethynylthiazol-4-yl)-3-(2-hydroxy-1-(4-(piperidin-1-yl)phenyl)ethyl)-urea] | ≤ 200
C#Cc1nc(NC(=O)N[C@@H](COC(=O)C(C)(C)C)c2ccc(-c3cccc4ncsc34)cc2)cs1 [Compound A202, (R)-2-(4-(Benzo[d]thiazol-7-yl)phenyl)-2-(3-(2-ethynylthiazol-4-yl)ureido)ethyl pivalate] | ≤ 200
C#Cc1nc(NC(=O)N(CCS(C)(=O)=O)Cc2ccc(-c3cccc4ncsc34)cc2)cs1 [Compound A207, 1-(4-(Benzo[d]thiazol-7-yl)benzyl)-3-(2-ethynylthiazol-4-yl)-1-(2-(methyl-sulfonyl)ethyl)urea] | ≤ 200

Same assay, conditions: NCI-H82 cells, 72 h incubation, cell viability by CELL-TITER GLO, top concentration 1 μM; read-out: EC50, Inhibition of NCl-H82 Cell Proliferation

EC50 [nM] | Structure (SMILES)
≤ 200 | C#Cc1nc(NC(=O)NCc2ccc(-c3cccc4ncsc34)cc2C#N)cs1 [Compound A178, 1-(4-(Benzo[d]thiazol-7-yl)-2-cyanobenzyl)-3-(2-ethynylthiazol-4-yl)urea]
